The record followed here is patent US11685734B2, “ATM kinase inhibitors and compositions and methods of use thereof” (CHDI Foundation, Inc., priority 2019, dated 2023).

By IC50 is commonly meant the concentration that gives 50% inhibition.

The target in test [1] is Recombinant, full length human FLAG-tagged ATM (Homo sapiens (Human), UniProt Q13315). Description: ATM ELISA for p53 S15 phosphorylation. The following applies: 0.75 nM ATM, 25 nM p53, 10 μM ATP, 30 min at 20° C.; read-out: ATM BIO IC50. It counts as biochemical. The gist of the method:
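ELISA of p53 S15 phosphorylation by 0.75 nM full-length FLAG-ATM, with 25 nM myc-p53 and 10 μM ATP in HEPES pH 7.5 with Mg/Mn, 30 min at 20° C. Reactions were EDTA-stopped, captured on anti-myc and detected with anti-pS15/HRP-TMB at 450 nm.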

The target in the next test is cellular ATM activity (Homo sapiens (Human), UniProt Q13315). Description: Inhibition of cellular ATM activity: etoposide-stimulated KAP1 phosphorylation in U20S cells. It counts as cell-based. The following applies: 100 μM etoposide, 60 min, read-out: ATM CELL IC50.
cellular ATM activity, sequence (Q13315 whole entry): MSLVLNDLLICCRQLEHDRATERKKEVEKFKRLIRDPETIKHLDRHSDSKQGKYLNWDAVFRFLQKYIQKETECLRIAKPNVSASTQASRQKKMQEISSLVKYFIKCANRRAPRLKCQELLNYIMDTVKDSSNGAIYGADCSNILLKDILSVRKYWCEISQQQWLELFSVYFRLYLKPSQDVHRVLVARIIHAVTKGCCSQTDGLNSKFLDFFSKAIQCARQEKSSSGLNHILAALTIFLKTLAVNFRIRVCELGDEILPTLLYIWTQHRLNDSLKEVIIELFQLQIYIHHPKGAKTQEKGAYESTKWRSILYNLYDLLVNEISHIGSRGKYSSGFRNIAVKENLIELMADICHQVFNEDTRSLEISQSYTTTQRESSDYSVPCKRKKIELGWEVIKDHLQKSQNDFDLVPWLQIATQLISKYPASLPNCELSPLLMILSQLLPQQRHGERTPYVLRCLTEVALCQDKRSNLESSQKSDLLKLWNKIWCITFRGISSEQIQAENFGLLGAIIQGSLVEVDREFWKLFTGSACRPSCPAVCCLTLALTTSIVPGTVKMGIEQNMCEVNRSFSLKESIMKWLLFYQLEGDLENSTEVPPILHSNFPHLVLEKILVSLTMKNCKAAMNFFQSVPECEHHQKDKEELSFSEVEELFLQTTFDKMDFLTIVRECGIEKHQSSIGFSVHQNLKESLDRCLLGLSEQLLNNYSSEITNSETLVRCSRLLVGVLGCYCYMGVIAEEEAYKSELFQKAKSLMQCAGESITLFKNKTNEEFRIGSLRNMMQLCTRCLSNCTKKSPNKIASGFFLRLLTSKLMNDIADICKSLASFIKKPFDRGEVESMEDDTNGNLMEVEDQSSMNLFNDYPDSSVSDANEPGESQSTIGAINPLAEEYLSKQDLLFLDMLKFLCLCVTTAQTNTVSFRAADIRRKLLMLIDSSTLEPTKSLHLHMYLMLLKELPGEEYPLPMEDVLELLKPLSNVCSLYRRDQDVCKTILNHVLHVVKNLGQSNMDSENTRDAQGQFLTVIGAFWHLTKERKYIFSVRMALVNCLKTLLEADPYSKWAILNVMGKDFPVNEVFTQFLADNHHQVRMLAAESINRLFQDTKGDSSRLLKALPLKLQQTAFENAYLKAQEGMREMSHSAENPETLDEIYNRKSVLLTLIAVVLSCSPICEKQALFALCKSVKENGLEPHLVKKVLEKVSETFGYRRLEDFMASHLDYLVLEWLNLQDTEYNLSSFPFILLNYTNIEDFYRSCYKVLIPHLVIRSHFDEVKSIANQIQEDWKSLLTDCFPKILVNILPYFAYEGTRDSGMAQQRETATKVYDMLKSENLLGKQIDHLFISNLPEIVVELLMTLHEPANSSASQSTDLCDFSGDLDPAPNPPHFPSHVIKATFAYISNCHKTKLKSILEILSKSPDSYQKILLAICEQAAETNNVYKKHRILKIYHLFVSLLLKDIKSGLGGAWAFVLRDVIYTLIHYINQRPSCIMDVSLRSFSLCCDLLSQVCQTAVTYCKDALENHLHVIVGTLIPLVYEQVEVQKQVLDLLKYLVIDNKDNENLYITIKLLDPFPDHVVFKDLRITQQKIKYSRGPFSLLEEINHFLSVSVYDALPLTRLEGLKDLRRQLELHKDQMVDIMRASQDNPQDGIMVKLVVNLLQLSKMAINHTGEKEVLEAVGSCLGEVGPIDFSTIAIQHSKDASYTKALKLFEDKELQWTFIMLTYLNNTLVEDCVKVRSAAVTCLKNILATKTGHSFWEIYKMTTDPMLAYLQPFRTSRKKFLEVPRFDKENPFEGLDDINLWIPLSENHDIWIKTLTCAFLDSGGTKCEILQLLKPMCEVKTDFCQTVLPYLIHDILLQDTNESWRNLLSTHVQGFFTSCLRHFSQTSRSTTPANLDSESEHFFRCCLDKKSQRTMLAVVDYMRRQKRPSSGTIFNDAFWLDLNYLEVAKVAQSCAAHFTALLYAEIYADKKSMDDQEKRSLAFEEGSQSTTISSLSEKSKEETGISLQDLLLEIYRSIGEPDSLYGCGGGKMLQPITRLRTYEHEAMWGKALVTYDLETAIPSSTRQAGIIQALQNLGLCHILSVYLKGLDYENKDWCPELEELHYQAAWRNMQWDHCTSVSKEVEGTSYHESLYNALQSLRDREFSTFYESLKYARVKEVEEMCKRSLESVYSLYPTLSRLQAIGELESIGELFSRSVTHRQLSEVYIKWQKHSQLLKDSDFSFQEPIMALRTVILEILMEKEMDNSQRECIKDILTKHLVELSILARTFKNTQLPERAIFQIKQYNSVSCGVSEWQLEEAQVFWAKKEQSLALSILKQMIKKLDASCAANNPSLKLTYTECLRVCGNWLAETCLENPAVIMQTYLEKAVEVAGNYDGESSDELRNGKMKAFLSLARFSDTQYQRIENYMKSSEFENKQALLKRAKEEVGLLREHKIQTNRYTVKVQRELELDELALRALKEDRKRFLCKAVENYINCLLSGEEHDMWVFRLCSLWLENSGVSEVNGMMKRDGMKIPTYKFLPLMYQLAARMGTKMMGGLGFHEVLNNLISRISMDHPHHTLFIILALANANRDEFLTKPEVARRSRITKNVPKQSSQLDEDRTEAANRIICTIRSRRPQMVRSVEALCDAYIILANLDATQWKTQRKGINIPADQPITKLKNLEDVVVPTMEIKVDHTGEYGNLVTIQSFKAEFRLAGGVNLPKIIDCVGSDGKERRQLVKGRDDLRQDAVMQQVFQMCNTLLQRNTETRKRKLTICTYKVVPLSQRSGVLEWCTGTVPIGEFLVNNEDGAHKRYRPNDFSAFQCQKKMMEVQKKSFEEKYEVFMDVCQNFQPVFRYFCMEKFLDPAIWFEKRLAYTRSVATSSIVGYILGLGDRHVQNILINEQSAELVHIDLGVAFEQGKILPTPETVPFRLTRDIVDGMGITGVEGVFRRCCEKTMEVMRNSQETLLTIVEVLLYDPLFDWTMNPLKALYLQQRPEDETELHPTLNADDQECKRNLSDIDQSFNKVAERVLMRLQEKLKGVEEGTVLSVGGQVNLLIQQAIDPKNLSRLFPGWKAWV

Recombinant, full length human FLAG-tagged ATM, sequence (Q13315 whole entry): as above

As to `O=c1cc(N2CCOCC2)nc(N2CCCCC[C@@H]2Cc2ccc(F)cc2)[nH]1` [Example 222], the IC50 in test [1] stood at 5.7 nM; on cellular ATM activity, 163 nM.
On to `CO[C@@H]1CCN(c2nc(N3CCOCC3)cc(=O)[nH]2)[C@H]1Cc1ccccc1` [Example 257, 2-((2S,3R)-2-benzyl-3-methoxypyrrolidin-1-yl)-6-morpholinopyrimidin-4(3H)-one], for which the values for the IC50 (in test [1]; on cellular ATM activity) were 4 nM and 411 nM, respectively.
In the case of `O=c1cc(N2CCOCC2)cc(N2C[C@H]3CCC[C@H]3[C@@H]2Cc2ccccc2)[nH]1` [Example 123], the figures for the IC50 (in test [1]; on cellular ATM activity) were 21.2 nM and 861 nM, respectively.
Take `O=c1cc(N2CCOCC2)nc(N2CCCCC[C@@H]2Cc2ccsc2)[nH]1` [Example 248]: the figures for the IC50 (in test [1]; on cellular ATM activity) were 3.9 nM and 421 nM, respectively.
In the same order, the values of `COc1ccccc1C[C@H]1[C@H](C)CCN1c1nc(N2CCOCC2)cc(=O)[nH]1` [Example 217] are 7.1 nM and 499 nM.
On to `O=c1cc(N2CCOCC2)nc(N2C[C@H]3C[C@H]3[C@@H]2Cc2ccc(F)cc2)[nH]1` [Example 209], for which the IC50 in test [1] amounted to 8.9 nM; on cellular ATM activity, 377 nM.
For `C[C@@H]1CN(c2cc(=O)[nH]c(N3CC[C@@H](C)[C@@H]3Cc3ccccc3)n2)CCO1` [Example 294, 2-((2S,3R)-2-benzyl-3-methylpyrrolidin-1-yl)-6-((R)-2-methylmorpholino)pyrimidin-4(3H)-one], the IC50 in test [1] is 20.9 nM; at cellular ATM activity, 423 nM.
For `C[C@@H]1CN(c2cc(=O)[nH]c(N3CCC[C@@H]3Cc3ccc(F)cc3)n2)CCO1` [Example 281, 2-[(2R)-2-[(4-fluorophenyl)methyl]pyrrolidin-1-yl]-4-[(2R)-2-methylmorpholin-4-yl]-1H-pyrimidin-6-one], the IC50 in test [1] was found to be 34.9 nM; at cellular ATM activity it was 627 nM.
